Tests used:
[1] = compound: C1CN(CCC1(C(=O)N[C@@H](CCO)C2=CC=C(C=C2)Cl)N)C3=NC=NC4=C3C=CN4 [AZD5363]; settings: max 10 µM
Outline: (§1)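 Cancer cell lines were plated in 1536-well plates in 7.5 μl of DMEM/F12 or RPMI with 10% FBS and kept 24 hours at 37°C and 5% CO2 before 72 hours of dosing, with final DMSO typically 0.2%. CellTiter-Glo 2.0 luminescence measured viability, scaled between blank-well and DMSO-well means. Dose responses were fitted to a two-parameter logistic curve with a non-linear mixed effects model. This fit gives the single-agent IC50.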

[2] = compound: C=CCn1c(=O)c2cnc(Nc3ccc(N4CCN(C)CC4)cc3)nc2n1-c1cccc(C(C)(C)O)n1 [AZD1775]; settings: max 3 µM
Outline: as §1

[3] = compound: CN(CC[C@H](CSC1=CC=CC=C1)NC2=C(C=C(C=C2)S(=O)(=O)NC(=O)C3=CC=C(C=C3)N4CCC(CC4)[C@H](C5=CC=CC=C5C6=CC=C(C=C6)Cl)O)S(=O)(=O)C(F)(F)F)CCO [AZD4320]; settings: max 1 µM
Outline: as §1

[4] = compound: COc1nnc2ccc(N3CCC(c4ccc(OCCN5CCN(C)C(=O)[C@H]5C)cc4)CC3)nn12 [AZD5153]; settings: max 1 µM
Outline: as §1

[5] = compound: Cc1c2c(nn1C)CSCc1cc(n(C)n1)CSc1cc(c3ccccc3c1)OCCCc1c(C(=O)O)n(C)c3c-2c(Cl)ccc13 [AZD5991]; settings: max 1 µM
Outline: as §1

[6] = compound: C[C@@H](c1ccc2nccn2c1)n1nnc2ncc(-c3cnn(C)c3)nc21 [Savolitinib]; settings: max 1 µM
Outline: as §1

[7] = compound: Cc1cc2ncnn2cc1Nc1ncc2c(n1)n(C1CCOCC1)c(=O)n2C [AZD7648]; settings: max 10 µM
Outline: as §1

[8] = compound: CCc1c2c(nc3ccc(O)cc13)-c1cc3c(c(=O)n1C2)COC(=O)[C@]3(O)CC [SN-38]; settings: max 0.3 µM
Outline: as §1

[9] = compound: CC(=O)c1c(C)c2cnc(Nc3ccc(N4CCNCC4)cn3)nc2n(C2CCCC2)c1=O [Palbociclib]; settings: max 10 µM
Outline: as §1

[10] = compound: N#Cc1cnc(Nc2cc(NC[C@H]3CNCCO3)c(C(F)(F)F)cn2)cn1 [SRA737]; settings: max 10 µM
Outline: as §1

[11] = compound: NC1(c2ccc(-c3nc4ccn5c(=O)[nH]nc5c4cc3-c3ccccc3)cc2)CCC1 [MK-2206]; settings: max 10 µM
Outline: as §1

[12] = compound: C[C@@H]1COCCN1C2=NC(=NC(=C2)C3(CC3)[S@](=N)(=O)C)C4=C5C=CNC5=NC=C4 [AZD6738]; settings: max 10 µM
Outline: as §1

[13] = compound: C[C@@H](Nc1cc(F)cc(F)c1)c1cc(C(=O)N(C)C)cc2c(=O)cc(N3CCOCC3)oc12 [AZD8186]; settings: max 10 µM
Outline: as §1

[14] = compound: Cc1nc(-c2cn3c(n2)-c2ccc(-c4cnn(C(C)(C)C(N)=O)c4)cc2OCC3)n(C(C)C)n1 [Taselisib]; settings: max 10 µM
Outline: as §1

[15] = compound: C1CC(C1)(C(=O)[O-])C(=O)[O-].N.N.[Pt+2] [Carboplatin]; settings: max 10 µM
Outline: as §1

[16] = compound: COc1cc(Nc2ncc3c(n2)-c2ccc(Cl)cc2C(c2c(F)cccc2OC)=NC3)ccc1C(=O)O [Alisertib]; settings: max 10 µM
Outline: as §1

[17] = compound: Nc1ccn([C@@H]2O[C@H](CO)[C@@H](O)C2(F)F)c(=O)n1 [Gemcitabine]; settings: max 0.3 µM
Outline: as §1

[18] = compound: COc1cc2ncnc(Nc3ccc(F)c(Cl)c3)c2cc1OCCCN1CCOCC1 [Gefitinib]; settings: max 10 µM
Outline: as §1

[19] = compound: COc1cccc(OCCCN)c1-c1cc(Nc2cnc(C#N)cn2)n[nH]1 [Prexasertib]; settings: max 1 µM
Outline: as §1

[20] = compound: CC1=CN2[C@@H](C1)C=NC3=CC(=C(C=C3C2=O)OC)OCCCCCOC4=C(C=C5C(=C4)N=C[C@@H]6CC(=CN6C5=O)C)OC [SG3199]; settings: max 0.001 µM
Outline: as §1

[21] = compound: CC(=O)O[C@H]1C(=O)[C@@]2(C)[C@H]([C@H](OC(=O)c3ccccc3)[C@]3(O)C[C@H](OC(=O)[C@H](O)[C@@H](NC(=O)c4ccccc4)c4ccccc4)C(C)=C1C3(C)C)[C@]1(OC(C)=O)CO[C@@H]1C[C@@H]2O [Paclitaxel]; settings: max 3 µM
Outline: as §1

[22] = compound: CCN(CCO)CCCOc1ccc2c(Nc3cc(CC(=O)Nc4cccc(F)c4)[nH]n3)ncnc2c1 [AZD2811]; settings: max 1 µM
Outline: as §1

[23] = compound: CC(C)n1c(=O)n(C)c2cnc3cc(F)c(-c4ccc(OCCCN5CCCCC5)nc4)cc3c21 [AZD1390]; settings: max 0.3 µM
Outline: as §1

[24] = compound: CC(=O)Nc1cccc(-n2c(=O)n(C3CC3)c(=O)c3c(Nc4ccc(I)cc4F)n(C)c(=O)c(C)c32)c1 [Trametinib]; settings: max 1 µM
Outline: as §1

[25] = compound: COc1cc([C@@H]2c3cc4c(cc3[C@@H](O[C@@H]3O[C@@H]5CO[C@@H](C)O[C@H]5[C@H](O)[C@H]3O)[C@H]3COC(=O)[C@H]23)OCO4)cc(OC)c1O [Etoposide]; settings: max 10 µM
Outline: as §1

[26] = compound: C[C@@H](Oc1cc(-c2cnn(C3CCNCC3)c2)cnc1N)c1c(Cl)ccc(F)c1Cl [Crizotinib]; settings: max 10 µM
Outline: as §1

[27] = compound: CS(=O)(=O)CCNCc1ccc(-c2ccc3ncnc(Nc4ccc(OCc5cccc(F)c5)c(Cl)c4)c3c2)o1 [Lapatinib]; settings: max 10 µM
Outline: as §1

[28] = compound: CC1=C(C(=CC=C1)Cl)NC(=O)C2=CN=C(S2)NC3=CC(=NC(=N3)C)N4CCN(CC4)CCO [Dasatinib]; settings: max 2 µM
Outline: as §1

[29] = compound: CN(C)CCCOc1ccc(-c2ccc3ncc4c(c3c2)n(C2CCOCC2)c(=O)n4C)cn1 [AZD0156]; settings: max 3 µM
Outline: as §1

[30] = compound: Cn1cnc2c(F)c(Nc3ccc(Br)cc3Cl)c(C(=O)NOCCO)cc21 [Selumetinib]; settings: max 10 µM
Outline: as §1

[31] = compound: O=c1[nH]cc(F)c(=O)[nH]1 [5-Fluorouracil]; settings: max 20 µM
Outline: as §1

[32] = compound: O=C(c1cc(Cc2n[nH]c(=O)c3ccccc23)ccc1F)N1CCN(C(=O)C2CC2)CC1 [Olaparib]; settings: max 10 µM
Outline: as §1

[33] = compound: COc1cccc2c1C(=O)c1c(O)c3c(c(O)c1C2=O)C[C@@](O)(C(=O)CO)C[C@@H]3O[C@H]1C[C@H](N)[C@H](O)[C@H](C)O1 [Doxorubicin]; settings: max 1 µM
Outline: as §1

[34] = compound: O=C(Nc1ccc2[nH]nc(-c3ccncc3)c2c1)[C@@H]1CCN(CC(=O)N2CCN(c3ccc(-c4ncccn4)cc3)CC2)C1; settings: max 5 µM
Outline: as §1

[35] = compound: CC1(C)CCC(CN2CCN(c3ccc(C(=O)NS(=O)(=O)c4ccc(NCC5CCOCC5)c([N+](=O)[O-])c4)c(Oc4cnc5[nH]ccc5c4)c3)CC2)=C(c2ccc(Cl)cc2)C1 [Venetoclax]; settings: max 1 µM
Outline: as §1

Cell Line	IC50, cell viability 72 h [1]	IC50, cell viability 72 h [2]	IC50, cell viability 72 h [3]	IC50, cell viability 72 h [4]	IC50, cell viability 72 h [5]	IC50, cell viability 72 h [6]	IC50, cell viability 72 h [7]	IC50, cell viability 72 h [8]	IC50, cell viability 72 h [9]	IC50, cell viability 72 h [10]	IC50, cell viability 72 h [11]	IC50, cell viability 72 h [12]	IC50, cell viability 72 h [13]	IC50, cell viability 72 h [14]	IC50, cell viability 72 h [15]	IC50, cell viability 72 h [16]	IC50, cell viability 72 h [17]	IC50, cell viability 72 h [18]	IC50, cell viability 72 h [19]	IC50, cell viability 72 h [20]	IC50, cell viability 72 h [21]	IC50, cell viability 72 h [22]	IC50, cell viability 72 h [23]	IC50, cell viability 72 h [24]	IC50, cell viability 72 h [25]	IC50, cell viability 72 h [26]	IC50, cell viability 72 h [27]	IC50, cell viability 72 h [28]	IC50, cell viability 72 h [29]	IC50, cell viability 72 h [30]	IC50, cell viability 72 h [31]	IC50, cell viability 72 h [32]	IC50, cell viability 72 h [33]	IC50, cell viability 72 h [34]	IC50, cell viability 72 h [35]
HT-1376 (Bladder Carcinoma)	> 10 µM	> 3 µM	> 1 µM	> 1 µM	> 1 µM	> 1 µM	> 10 µM	> 0.3 µM	> 10 µM	> 10 µM	> 10 µM	> 10 µM	> 10 µM	> 10 µM	> 10 µM	> 10 µM	> 0.3 µM	> 10 µM	> 1 µM	> 0.001 µM	> 3 µM	> 1 µM	> 0.3 µM	> 1 µM	> 10 µM	> 10 µM	> 10 µM	> 2 µM	> 3 µM	> 10 µM	> 20 µM	> 10 µM	> 1 µM	> 5 µM	> 1 µM
CCRF-CEM (T-Lymphoblastic Leukemia)	7.97 µM	0.134 µM	0.0552 µM	0.523 µM	> 1 µM	> 1 µM	> 10 µM	0.00191 µM	1.95 µM	0.77 µM	3.98 µM	0.992 µM	> 10 µM	7.25 µM	> 10 µM	0.0737 µM	0.0326 µM	> 10 µM	0.00326 µM	> 0.001 µM	0.00487 µM	0.00651 µM	> 0.3 µM	> 1 µM	0.202 µM	1.55 µM	> 10 µM	> 2 µM	> 3 µM	> 10 µM	> 20 µM	> 10 µM	0.0626 µM	> 5 µM	> 1 µM
LS-180 (Colorectal Carcinoma)	> 10 µM	2.03 µM	> 1 µM	0.673 µM	> 1 µM	> 1 µM	> 10 µM	0.0211 µM	9.72 µM	> 10 µM	> 10 µM	3.42 µM	> 10 µM	2.16 µM	> 10 µM	7.41 µM	0.0118 µM	> 10 µM	0.103 µM	> 0.001 µM	0.0305 µM	> 1 µM	> 0.3 µM	0.0744 µM	1.92 µM	> 10 µM	> 10 µM	> 2 µM	> 3 µM	2.68 µM	> 20 µM	> 10 µM	0.168 µM	2.85 µM	> 1 µM
T98G (Glioblastoma)	> 10 µM	1.05 µM	> 1 µM	> 1 µM	> 1 µM	> 1 µM	> 10 µM	> 0.3 µM	> 10 µM	2.04 µM	> 10 µM	2.59 µM	5.45 µM	5.87 µM	> 10 µM	> 10 µM	0.119 µM	> 10 µM	0.031 µM	> 0.001 µM	0.0146 µM	> 1 µM	> 0.3 µM	> 1 µM	> 10 µM	> 10 µM	> 10 µM	0.287 µM	> 3 µM	> 10 µM	> 20 µM	> 10 µM	> 1 µM	> 5 µM	> 1 µM
CAL-148 (Breast Carcinoma)	0.274 µM	0.206 µM	> 1 µM	0.803 µM	> 1 µM	> 1 µM	> 10 µM	0.0025 µM	> 10 µM	> 10 µM	1.38 µM	3.82 µM	> 10 µM	0.241 µM	> 10 µM	1.33 µM	0.0299 µM	> 10 µM	0.234 µM	> 0.001 µM	0.0452 µM	0.0262 µM	> 0.3 µM	> 1 µM	0.59 µM	> 10 µM	> 10 µM	> 2 µM	> 3 µM	> 10 µM	> 20 µM	> 10 µM	0.0549 µM	> 5 µM	> 1 µM

— the supplement of paper PMC11061612
